Experimental data from ChEMBL document CHEMBL1135046, “Synthesis of an alpha-aminophosphonate nucleoside as an inhibitor of S-adenosyl-L-homocysteine hydrolase” (Bioorg Med Chem Lett, 2002).

Assays:
[1] = biological target: T1, Adenosylhomocysteinase (Rattus norvegicus) (UniProt P10760); experiment: (§1) Inhibition constant for the compound was determined against the recombinant rat liver AdoHyc hydrolase (MV1304/pUCSAH)
T1 sequence (whole entry): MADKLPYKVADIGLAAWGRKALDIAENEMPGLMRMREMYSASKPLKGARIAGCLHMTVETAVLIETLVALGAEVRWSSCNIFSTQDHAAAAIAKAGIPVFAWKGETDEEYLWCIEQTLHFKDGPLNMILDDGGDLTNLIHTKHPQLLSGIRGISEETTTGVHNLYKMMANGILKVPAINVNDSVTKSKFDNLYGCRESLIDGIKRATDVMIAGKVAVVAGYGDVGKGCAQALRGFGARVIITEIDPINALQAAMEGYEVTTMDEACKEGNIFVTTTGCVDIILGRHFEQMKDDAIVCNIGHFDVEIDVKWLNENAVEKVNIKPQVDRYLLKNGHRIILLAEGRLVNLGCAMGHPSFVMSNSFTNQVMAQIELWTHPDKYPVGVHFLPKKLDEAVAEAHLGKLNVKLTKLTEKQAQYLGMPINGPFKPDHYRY

Adenosylhomocysteinase = biological target: T2, Adenosylhomocysteinase (Rattus norvegicus, UniProt P10760); experiment: as §1
T2 sequence (P10760 whole entry): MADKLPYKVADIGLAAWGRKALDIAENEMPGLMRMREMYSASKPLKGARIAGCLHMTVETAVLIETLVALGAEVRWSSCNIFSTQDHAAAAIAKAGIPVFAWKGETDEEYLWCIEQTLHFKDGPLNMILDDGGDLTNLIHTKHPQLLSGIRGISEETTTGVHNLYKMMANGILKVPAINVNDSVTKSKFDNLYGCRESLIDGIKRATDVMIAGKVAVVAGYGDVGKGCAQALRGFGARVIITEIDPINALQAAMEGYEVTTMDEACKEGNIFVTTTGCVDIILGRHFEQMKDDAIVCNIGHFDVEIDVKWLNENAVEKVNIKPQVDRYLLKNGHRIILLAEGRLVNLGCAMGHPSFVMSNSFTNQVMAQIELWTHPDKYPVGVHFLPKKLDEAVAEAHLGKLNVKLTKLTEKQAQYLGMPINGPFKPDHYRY

[2] = substrate: Nc1ncnc2c1ncn2[C@@H]1O[C@H](CSCC[C@H](N)C(=O)O)[C@@H](O)[C@H]1O
Description: Km for the compound was determined against the recombinant rat liver AdoHyc hydrolase (MV1304/pUCSAH)

Molecule	K inact [1] [min⁻¹]	Ki (Adenosylhomocysteinase) [µM]	Km [2] [µM]
CC(C)CSC[C@H]1OC(n2cnc3c(N)ncnc32)[C@H](O)[C@@H]1O (some centres not stated)	0.0488	105	–
Nc1ncnc2c1ncn2C1OC(CSCC[C@H](N)C(=O)O)[C@@H](O)[C@H]1O (stereo in doubt; form 1) [listing 1 of 2 here]	–	1090	–
Nc1ncnc2c1ncn2C1OC(CSCC[C@H](N)C(=O)O)[C@@H](O)[C@H]1O (stereo in doubt; form 1) [listing 2 of 2 here]	0.0145	–	–
Nc1ncnc2c1ncn2C1OC(CSCC[C@H](N)C(=O)O)[C@@H](O)[C@H]1O (stereo in doubt; form 2) [listing 1 of 2 here]	–	345	–
Nc1ncnc2c1ncn2C1OC(CSCC[C@H](N)C(=O)O)[C@@H](O)[C@H]1O (stereo in doubt; form 2) [listing 2 of 2 here]	0.0049	–	–
Adenosylhomocysteinase (Rattus norvegicus), P10760 (protein) MADKLPYKVADIGLAAWGRKALDIAENEMPGLMRMREMYSASKPLKGARIAGCLHMTVETAVLIETLVALGAEVRWSSCNIFSTQDHAAAAIAKAGIPVFAWKGETDEEYLWCIEQTLHFKDGPLNMILDDGGDLTNLIHTKHPQLLSGIRGISEETTTGVHNLYKMMANGILKVPAINVNDSVTKSKFDNLYGCRESLIDGIKRATDVMIAGKVAVVAGYGDVGKGCAQALRGFGARVIITEIDPINALQAAMEGYEVTTMDEACKEGNIFVTTTGCVDIILGRHFEQMKDDAIVCNIGHFDVEIDVKWLNENAVEKVNIKPQVDRYLLKNGHRIILLAEGRLVNLGCAMGHPSFVMSNSFTNQVMAQIELWTHPDKYPVGVHFLPKKLDEAVAEAHLGKLNVKLTKLTEKQAQYLGMPINGPFKPDHYRY	–	–	9.7
